Reference: patent publication US20180354991A1, “THERAPEUTIC COMPOSITIONS INCLUDING GRAMICIDIN S PEPTIDYL CONJUGATES OR IMIDAZOLE-SUBSTITUTED FATTY ACIDS, VARIANTS THEREOF AND USES THEREOF” (Stealth Biotherapeutics Corp, priority 2015, published 2018)

Tested on: neonatal cardiomyocytes
Experiment: Ang II-induced mitochondrial superoxide (Mitosox) in neonatal cardiomyocytes
Type: cell-based, mouse
Settings: Angiotensin II 1 μM for 3 hours; peptide conjugates 1 nM or equimolar; NAC 0.5 mM
Description: Ventricles from mouse neonates younger than 72 hours will be dissected, minced, and enzymatically digested with Blendzyme 4 (45 mg/mL, Roche). After enzymatic digestion, cardiomyocytes will be enriched using differential pre-plating for 2 hours, and seeded on fibronectin-coated culture dishes for 24 hours in DMEM (Gibco) with 20% Fetal Bovine Seium (Sigma) and 25 μM Arabinosylcytosine (Sigma). Cardiomyocytes will be stimulated with Angiotensin II (1 μM) for 3 hours in serum-free DMEM containing 0.5% insulin transferrin-selenium (Sigma), 2 mM glutamine, and 1 mg/mL BSA. […] Samples will be analyzed using excitation/emission of 488/625 nm by flow cytometry. Flow data will be analyzed using FCS Express (De Novo Software, Los Angeles, Calif., U.S.A.), and presented as histogram distributions of Mitosox fluorescence intensity.

Q: How did the “Ang II-induced Mitosox fluorescence (mitochondrial ROS)” value turn out when `CC(=O)N[C@@H](CS)C(=O)O` [N-acetyl cysteine] was run?
A: The value was “not show any effect”.
